By Ki is commonly meant the equilibrium dissociation constant of an inhibitor or competing ligand from its target. The low end stands for a stronger hold on the target, the high end for a looser hold on the target. As a reminder, the ED50 is the dose at which the effect has come halfway, by size or by number of responders. Higher therefore signals weaker potency.

Test [1] concerns the target Stromelysin-1 (Homo sapiens, UniProt P08254).
Description: Inhibition of human stromelysin-1 (Matrix metalloprotease-3)
Test [2] deals with 72 kDa type IV collagenase (Homo sapiens, UniProt P08253).
72 kDa type IV collagenase, sequence (P08253 whole entry): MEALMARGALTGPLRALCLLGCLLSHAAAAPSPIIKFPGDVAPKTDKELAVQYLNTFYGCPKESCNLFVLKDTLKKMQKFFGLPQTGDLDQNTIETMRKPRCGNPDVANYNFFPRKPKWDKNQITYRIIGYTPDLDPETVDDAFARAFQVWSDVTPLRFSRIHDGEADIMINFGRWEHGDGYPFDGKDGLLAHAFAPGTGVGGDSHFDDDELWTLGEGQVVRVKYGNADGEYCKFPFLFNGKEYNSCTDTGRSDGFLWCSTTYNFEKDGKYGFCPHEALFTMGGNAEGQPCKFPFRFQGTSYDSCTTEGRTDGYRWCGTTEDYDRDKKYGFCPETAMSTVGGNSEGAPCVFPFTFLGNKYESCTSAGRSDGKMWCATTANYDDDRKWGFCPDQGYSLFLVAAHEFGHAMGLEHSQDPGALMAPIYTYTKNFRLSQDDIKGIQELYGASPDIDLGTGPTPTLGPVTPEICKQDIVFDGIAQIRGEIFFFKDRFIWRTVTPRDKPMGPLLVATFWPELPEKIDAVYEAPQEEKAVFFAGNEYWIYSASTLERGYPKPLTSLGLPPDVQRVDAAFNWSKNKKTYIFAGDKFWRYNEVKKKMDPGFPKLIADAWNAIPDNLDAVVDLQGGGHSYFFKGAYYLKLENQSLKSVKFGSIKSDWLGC
Description: Inhibition of gelatinase A (Matrix metalloprotease-2)
The test system of test [3] is Mus musculus. Put plainly: Effective dose for inhibition of MMP-3 mediated degradation of radiolabeled transferrin in the mouse pleural cavity (PLCAV) after 60 mpk oral dose of inhibitor. It is filed as functional.

Stromelysin-1, sequence (P08254 whole entry): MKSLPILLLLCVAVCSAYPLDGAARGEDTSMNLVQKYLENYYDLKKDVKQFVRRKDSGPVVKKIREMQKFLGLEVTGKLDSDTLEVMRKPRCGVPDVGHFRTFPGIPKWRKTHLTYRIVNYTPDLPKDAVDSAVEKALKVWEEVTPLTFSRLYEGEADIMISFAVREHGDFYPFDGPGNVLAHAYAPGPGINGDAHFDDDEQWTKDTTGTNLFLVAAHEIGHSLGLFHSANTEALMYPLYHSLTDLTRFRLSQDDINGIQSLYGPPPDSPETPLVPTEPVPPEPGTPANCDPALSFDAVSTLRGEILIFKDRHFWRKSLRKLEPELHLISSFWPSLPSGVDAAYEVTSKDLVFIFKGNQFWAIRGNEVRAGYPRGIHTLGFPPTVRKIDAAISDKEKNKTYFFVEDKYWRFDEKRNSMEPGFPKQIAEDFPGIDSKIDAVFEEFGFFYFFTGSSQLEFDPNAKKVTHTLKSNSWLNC

`CCCC[C@@H](C[C@@H](CCc1ccc(-c2ccc(Br)cc2)cc1)C(=O)N[C@H](C(=O)NC)C(C)(C)C)C(=O)O`: the Ki in test [1] was 11 nM; in test [2], 17 nM.
Taken in the same sequence, the figures for `CCCC[C@@H](C[C@@H](CCc1ccc(/C=C/c2ccccc2)cc1)C(=O)N[C@H](C(=O)NC)C(C)(C)C)C(=O)O` were 65 nM and 760 nM.
The like results for `CCCC[C@@H](C[C@@H](CCc1ccc(-c2ccc(Cl)cc2)cc1)C(=O)N[C@H](C(=O)NC)C(C)(C)C)C(=O)O` were, in that order, 13 nM and 25 nM.
In test [1], `CC(C)C[C@H](NC(=O)[C@H](CCc1ccc(-c2ccc(F)cc2)cc1)C[C@H](C)C(=O)O)C(=O)Nc1ccccc1` came in with a Ki of 38 nM.
Regarding `CCCC[C@@H](C[C@@H](CCc1ccc(-c2ccc(F)c(Cl)c2)cc1)C(=O)N[C@H](C(=O)NC)C(C)(C)C)C(=O)O`, the Ki in test [1] amounted to 19 nM; in test [2], 80 nM.
`CCCC[C@@H](C[C@@H](CCc1ccc(OCc2ccccc2)cc1)C(=O)N[C@H](C(=O)NC)C(C)(C)C)C(=O)O`: the Ki in test [1] worked out at 74 nM; in test [2] it was 210 nM.
For the compound `CCCC[C@@H](C[C@@H](CCc1cccc(-c2ccsc2)c1)C(=O)N[C@H](C(=O)NC)C(C)(C)C)C(=O)O`, the results for the inhibition constant Ki in test [1] and in test [2] were 15 nM and 21 nM, respectively.
`CCCC[C@@H](C[C@@H](CCc1ccc(-c2ccc3ccccc3c2)cc1)C(=O)N[C@H](C(=O)NC)C(C)(C)C)C(=O)O` gave a Ki in test [1] of 120 nM.
In the case of `CCCC[C@@H](C[C@@H](CCc1ccc(-c2cc(Cl)cc(Cl)c2)cc1)C(=O)N[C@H](C(=O)NC)C(C)(C)C)C(=O)O`, the Ki in test [1] was 1500 nM; in test [2], 1600 nM.
Regarding `CCCC[C@@H](C[C@@H](CCc1ccc(-c2ccc(-c3nnn[nH]3)cc2)cc1)C(=O)N[C@H](C(=O)NC)C(C)(C)C)C(=O)O`, the Ki came out at 350 nM in test [1] and 1800 nM in test [2].
The like results for `CCCC[C@@H](C[C@@H](CCc1ccc(-c2ccc(Cl)cc2Cl)cc1)C(=O)N[C@H](C(=O)NC)C(C)(C)C)C(=O)O` were, in that order, 12 nM and 100 nM.
Taken in the same sequence, the figures for `CCCC[C@@H](C[C@@H](CCc1ccc(-c2cccc(N)c2)cc1)C(=O)N[C@H](C(=O)Nc1ccccc1)C(C)(C)C)C(=O)O` were 27 nM and 280 nM.
Taken in the same sequence, the figures for `CCCC[C@@H](C[C@@H](CCc1ccc(-c2ccc(F)cc2)cc1)C(=O)N[C@H](C(=O)Nc1ccccc1)C(C)(C)C)C(=O)O` were 4 nM and 150 nM.
`CCCc1ccc(CC[C@H](N[C@H](C)C(=O)O)C(=O)N[C@@H](CC(C)C)C(=O)Nc2ccccc2)cc1` came in with an ED50 in test [3] of 65 mg/kg.
As to `CCCC[C@@H](C[C@@H](CCc1ccc(CCC)cc1)C(=O)N[C@H](C(=O)Nc1ccncc1)C(C)(C)C)C(=O)O`, the figures for the inhibitory constant (Ki) in test [1] and in test [2] were 11 nM and 22 nM, respectively.
Take `CCCC[C@@H](C[C@@H](CCc1ccc(-c2cc3ccccc3[nH]2)cc1)C(=O)N[C@H](C(=O)NC)C(C)(C)C)C(=O)O`: the Ki in test [1] was 12 nM; in test [2] it was 49 nM.
On to `CCCC[C@@H](C[C@@H](CCc1ccc(-c2ccc(C(=O)O)cc2)cc1)C(=O)N[C@H](C(=O)NC)C(C)(C)C)C(=O)O`, for which the Ki amounted to 690 nM in test [1] and 580 nM in test [2].
Take `CCCC[C@@H](C[C@@H](CCc1ccc(-c2ccc(C=O)cc2)cc1)C(=O)N[C@H](C(=O)NC)C(C)(C)C)C(=O)O`: the Ki in test [1] stood at 15 nM; in test [2], 16 nM.
The like results for `CCCC[C@@H](C[C@@H](CCc1ccc(-c2ccc(C(=O)N(C)C)cc2)cc1)C(=O)N[C@H](C(=O)NC)C(C)(C)C)C(=O)O` were, in that order, 40 nM and 50 nM.
`CCCC[C@@H](C[C@@H](CCc1ccc(-c2ccc(C#N)cc2)cc1)C(=O)N[C@H](C(=O)NC)C(C)(C)C)C(=O)O`: the Ki in test [1] turned out to be 9 nM; in test [2] it was 14 nM.
As to `CCCC[C@@H](C[C@@H](CCc1ccc(-c2ccc([S+](C)[O-])cc2)cc1)C(=O)N[C@H](C(=O)NC)C(C)(C)C)C(=O)O` (some centres undefined), the Ki came out at 52 nM in test [1] and 30 nM in test [2].
The like results for `CCCC[C@@H](C[C@@H](CCc1ccc(-c2cccc(F)c2)cc1)C(=O)N[C@H](C(=O)NC)C(C)(C)C)C(=O)O` were, in that order, 21 nM and 48 nM.
The like results for `CCCC[C@@H](C[C@@H](CCc1ccc(-c2ccc(S(C)(=O)=O)cc2)cc1)C(=O)N[C@H](C(=O)NC)C(C)(C)C)C(=O)O` were, in that order, 21 nM and 19 nM.
On to `CCCC[C@@H](C[C@@H](CCc1ccc(Cc2ccccc2)cc1)C(=O)N[C@H](C(=O)Nc1ccccc1)C(C)(C)C)C(=O)O`, for which the results for the Ki in test [1] and in test [2] were 1400 nM and 16 nM, respectively.
Taken in the same sequence, the figures for `CCCC[C@@H](C[C@@H](CCc1ccc(CCC)cc1)C(=O)N[C@H](C(=O)NC)C(C)(C)C)C(=O)O` were 140 nM and 47 nM.
In the case of `CCCC[C@@H](C[C@@H](CCc1ccc(-c2ccc(C(=O)OC)cc2)cc1)C(=O)N[C@H](C(=O)NC)C(C)(C)C)C(=O)O`, the figures for the Ki in test [1] and in test [2] were 31 nM and 32 nM, respectively.
In the case of `CCCC[C@@H](C[C@@H](CCc1ccc(C2CCCCCC2)cc1)C(=O)N[C@H](C(=O)NC)C(C)(C)C)C(=O)O`, the Ki in test [1] was found to be 95 nM; in test [2] it was 1900 nM.
Turning to `CCCC[C@@H](C[C@@H](CCc1ccc(-c2ccc(OC)cc2)cc1)C(=O)N[C@H](C(=O)NC)C(C)(C)C)C(=O)O`, the results for the inhibition constant (Ki) in test [1] and in test [2] were 13 nM and 21 nM, respectively.
Taken in the same sequence, the figures for `CCCC[C@@H](C[C@@H](CCc1ccc(-c2ccc(C(N)=O)cc2)cc1)C(=O)N[C@H](C(=O)NC)C(C)(C)C)C(=O)O` were 24 nM and 38 nM.
For `CCCc1ccc(CC[C@H](C[C@H](C)C(=O)O)C(=O)N[C@@H](CC(C)C)C(=O)Nc2ccccc2)cc1`, in test [3], the ED50 worked out at 32 mg/kg.
As for `CCCC[C@@H](C[C@@H](CCc1ccc(-c2ccc(C(F)(F)F)cc2)cc1)C(=O)N[C@H](C(=O)NC)C(C)(C)C)C(=O)O`, the inhibitory constant (Ki) was found to be 37 nM in test [1] and 39 nM in test [2].
Taken in the same sequence, the figures for `CCCC[C@@H](C[C@@H](CCc1ccc(-c2cccc3ccccc23)cc1)C(=O)N[C@H](C(=O)NC)C(C)(C)C)C(=O)O` were 2000 nM and 6900 nM.
For the compound `CC(C)C[C@H](NC(=O)[C@H](CCc1ccc(-c2ccccc2)cc1)C[C@H](C)C(=O)O)C(=O)Nc1ccccc1`, in test [1], the Ki was 82 nM. This counts as double-digit nanomolar.
As to `CCCC[C@@H](C[C@@H](CCc1ccc(-c2ccccc2S(=O)(=O)NC(C)(C)C)cc1)C(=O)N[C@H](C(=O)NC)C(C)(C)C)C(=O)O`, the Ki in test [1] worked out at 10 nM; in test [2], 17 nM.
Taken in the same sequence, the figures for `CCCC[C@@H](C[C@@H](CCc1ccc(-c2ccc(C(=O)NC)cc2)cc1)C(=O)N[C@H](C(=O)NC)C(C)(C)C)C(=O)O` were 49 nM and 34 nM.
Turning to `CCCC[C@@H](C[C@@H](CCc1ccc(-c2cccc(C(F)(F)F)c2)cc1)C(=O)N[C@H](C(=O)NC)C(C)(C)C)C(=O)O`, the Ki in test [1] amounted to 1100 nM; in test [2], 3600 nM.
Taken in the same sequence, the figures for `CCCC[C@@H](C[C@@H](CCc1ccc(C2CCCO2)cc1)C(=O)N[C@H](C(=O)NC)C(C)(C)C)C(=O)O` (some centres undefined) were 1400 nM and 810 nM.
Consider `CCCC[C@@H](C[C@@H](CCc1ccc(-c2ccc(F)cc2)cc1)C(=O)N[C@H](C(=O)Nc1ccncc1)C(C)(C)C)C(=O)O`, for which the Ki in test [1] is 2 nM; in test [2], 25 nM.
`CCCC[C@@H](C[C@@H](CCc1ccc(-c2ccc(-c3ncc[nH]3)cc2)cc1)C(=O)N[C@H](C(=O)NC)C(C)(C)C)C(=O)O`: the Ki turned out to be 25 nM in test [1] and 94 nM in test [2].
The like results for `CCCC[C@@H](C[C@@H](CCc1ccc(CCc2ccccc2)cc1)C(=O)N[C@H](C(=O)NC)C(C)(C)C)C(=O)O` were, in that order, 49 nM and 380 nM.
With `CCCC[C@@H](C[C@@H](CCc1ccc(-c2ccccc2F)cc1)C(=O)N[C@H](C(=O)NC)C(C)(C)C)C(=O)O`, the Ki in test [1] is 11 nM; in test [2], 61 nM.
Regarding `CCCC[C@@H](C[C@@H](CCc1cccc(-c2ccccc2)c1)C(=O)N[C@H](C(=O)NC)C(C)(C)C)C(=O)O`, the values for the Ki in test [1] and in test [2] were 1500 nM and 2400 nM, respectively.
The compound `CCCC[C@@H](C[C@@H](CCc1ccc(-c2ccccc2S(N)(=O)=O)cc1)C(=O)N[C@H](C(=O)NC)C(C)(C)C)C(=O)O` came in with a Ki in test [1] of 9400 nM.
Regarding `CCCC[C@@H](C[C@@H](CCc1ccc(-c2ccc(-c3ccccc3)cc2)cc1)C(=O)N[C@H](C(=O)NC)C(C)(C)C)C(=O)O`, the figures for the Ki in test [1] and in test [2] were 39 nM and 84 nM, respectively.
As to `CC(C)C[C@H](NC(=O)[C@H](CCc1ccccc1)N[C@H](C)C(=O)O)C(=O)Nc1ccccc1` [L-696418], the ED50 in test [3] is > 100 mg/kg.
Consider `CCCC[C@@H](C[C@@H](CCc1ccc(-c2c(C)cccc2C)cc1)C(=O)N[C@H](C(=O)NC)C(C)(C)C)C(=O)O`, for which the Ki in test [1] turned out to be 1200 nM; in test [2], 1300 nM.
Regarding `CCCC[C@@H](C[C@@H](CCc1ccccc1)C(=O)N[C@H](C(=O)NC)C(C)(C)C)C(=O)O`, the values for the Ki in test [1] and in test [2] were 3800 nM and 1500 nM, respectively.
Take `CCCC[C@@H](C[C@@H](CCc1ccc(-c2ccc(SC)cc2)cc1)C(=O)N[C@H](C(=O)NC)C(C)(C)C)C(=O)O`: the inhibition constant (Ki) in test [1] was 5 nM; in test [2] it was 13 nM.
